The source made the active and inactive calls.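 Rule for the calls: active = fitted curve reaches 40% activation below the top valid tested dose, in every test run; inconclusive = test runs disagree on the call; inactive = the rest, including effects opposite to the expected direction.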

The first experiment is described as follows: E-selectin inducers in HUVECs, dose response, imaging, HUVEC, cherry-picked samples (AID 977605).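 Note: signal is the share of imaged cells scored positive for E-selectin.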 The settings on record: HUVEC E-selectin immunostaining, at 18 µM (top of the series), percent of TNF-alpha response over vehicle.
For the molecule `C[C@H](CO)N1C[C@H](C)[C@H](CN(C)C(=O)Nc2ccc3c(c2)OCO3)Oc2ccc(NC(=O)CCCCCC(=O)Nc3ccccc3N)cc2CC1=O`, the activation was 0.255% (inactive).

Staying with this experiment, now noted: HUVEC E-selectin immunostaining, at 19.5 µM (top of the series), percent of TNF-alpha response over vehicle.
`C[C@@H]1CN([C@@H](C)CO)C(=O)c2cccc(NC(=O)Nc3ccc(F)cc3)c2O[C@H]1CN(C)CC1CCCCC1`: the activation is -0.153% (inactive).

Turning to `C[C@H](CO)N1C[C@H](C)[C@H](CN(C)Cc2ccncc2)Oc2ccc(NC(=O)CCC(F)(F)F)cc2CC1=O`, the activation was -0.107% (inactive).

For the molecule `CNS(=O)(=O)c1ccc(NC(=O)C2CC(=O)N(c3ccc(Cl)cc3)C2)cc1` (stereo not given), the activation was -0.269% (inactive).

As for `C[C@H](CO)N1C[C@H](C)[C@H](CN(C)Cc2ccncc2)Oc2c(NC(=O)Nc3ccc(F)cc3)cccc2C1=O`, the activation is -0.19% (inactive).

In the case of `CCC(=O)Oc1cccc(C(=O)Nc2cccc(NC(=O)c3ccco3)c2)c1`, the activation is -0.083% (inactive).

Take `CC(C)NC(=O)Nc1ccc2c(c1)CC(=O)N([C@H](C)CO)C[C@@H](C)[C@H](CN(C)Cc1ccc(Oc3ccccc3)cc1)O2`: the activation is -0.138% (inactive).

With `COc1ccc(C(=O)Nc2ccc3c(c2)OCCO3)cc1[N+](=O)[O-]`, the activation was 0.055% (inactive).

For `C[C@H]1CN([C@@H](C)CO)C(=O)c2cc(NC(=O)Nc3ccc(F)cc3)ccc2O[C@H]1CN(C)S(C)(=O)=O`, the activation is 4.69% (inactive).

Take `C[C@@H]1CN([C@@H](C)CO)S(=O)(=O)c2ccc(C#CC3CC3)cc2O[C@@H]1CN(C)Cc1cccnc1`: the activation is -0.068% (inactive).

Consider `COc1ccc(S(=O)(=O)Nc2ccc3c(c2)C(=O)N([C@H](C)CO)C[C@@H](C)[C@@H](CN(C)Cc2ccc(Cl)c(Cl)c2)O3)cc1`, for which the activation was -0.147% (inactive).

On to `CCCCC1C(=O)N(c2ccccc2)N(c2ccc(O)cc2)C1=O` (stereo not given), for which the activation was -0.246% (inactive).

Take `CC(Sc1ncnc2sc(-c3ccccc3)cc12)C(=O)N1CCNC1=O` (stereo not given): the activation was 0.007% (inactive).

As to `COc1ccc(NC(=O)Nc2cccc3c2O[C@H](CN(C)C(=O)NC2CCCCC2)[C@H](C)CN([C@H](C)CO)C3=O)cc1`, the activation was 0.915% (inactive).

As to `C[C@H](CO)N1C[C@H](C)[C@@H](CN(C)S(C)(=O)=O)Oc2ccc(NC(=O)C3CCCCC3)cc2CC1=O`, the activation was 0.112% (inactive).

As to `CC(C)NC(=O)N(C)C[C@@H]1Oc2ccc(NS(=O)(=O)c3cccs3)cc2CC(=O)N([C@H](C)CO)C[C@@H]1C`, the activation is 1.19% (inactive).

As to `C[C@@H]1CN([C@@H](C)CO)C(=O)Cc2cc(NC(=O)Nc3ccc(F)cc3)ccc2O[C@H]1CN(C)S(=O)(=O)c1ccccc1`, the activation was -0.074% (inactive).

As to `COc1ccc(OCCN2CCN(S(=O)(=O)c3ccccc3C(F)(F)F)CC2)cc1`, the activation is -0.023% (inactive).

As to `C[C@@H]1CN([C@@H](C)CO)C(=O)c2cc(NC(=O)Cn3cnnn3)ccc2O[C@@H]1CN(C)Cc1ccc(Oc2ccccc2)cc1`, the activation was -0.116% (inactive).

Regarding `Cn1c(CNS(=O)(=O)c2ccc(Cl)cc2)cc(=O)n(C)c1=O`, the activation is -0.279% (inactive).

`C[C@@H]1CN([C@H](C)CO)C(=O)c2cc(NS(C)(=O)=O)ccc2O[C@H]1CN(C)C(=O)Nc1ccccc1`: the activation was -0.057% (inactive).

For `O=C(CCCn1c(=O)c2ccccc2n(CC(=O)N2CCN(c3ccccc3)CC2)c1=O)NCc1ccco1`, the activation is -0.084% (inactive).

Still in this experiment, the particulars now being: HUVEC E-selectin immunostaining, at 21 µM (top of the series), percent of TNF-alpha response over vehicle.
In the case of `C[C@H]1CN([C@@H](C)CO)C(=O)c2cccc(NS(=O)(=O)c3cn(C)cn3)c2O[C@@H]1CN(C)C(=O)Nc1ccc(F)cc1`, the activation is -0.136% (inactive).

As to `COc1ccc(CN(C)C[C@@H]2Oc3ccc(NC(=O)c4ccncc4)cc3C(=O)N([C@H](C)CO)C[C@H]2C)cc1`, the activation is 0.114% (inactive).

Consider `COc1ccc(S(=O)(=O)N(C)C[C@@H]2Oc3ccc(NC(=O)CCCN(C)C)cc3C(=O)N([C@@H](C)CO)C[C@@H]2C)cc1`, for which the activation is -0.143% (inactive).

For the origin of these results see PubChem BioAssay AID977605 (Broad Institute, 2014).
